Legend:
Format in all cases: cell-based, human
Highly purified T cells [1] = assay: T cell proliferation induced by anti-CD28 mAb+PMA (BrdU); details: read-out: IC50 aCD28
Description: (§1) Various models may be used for testing an immunosuppressive effect. In vivo, for example, different transplantation models are available. They are strongly influenced by different immunogenicities, depending on the donor and recipient species used and depending on the nature of the transplanted organ. The survival time of transplanted organs can thus be used to measure the suppression of the immune response. In vitro, there exist also various models. The most used are lymphocyte activation tests. Usually activation is measured via lymphocyte proliferation. Inhibition of proliferation thus always means immunosuppression under the experimental conditions applied. There exist different stimuli for lymphocyte activation: • coculture of lymphocytes of […] (MLR=mixed lymphocyte reaction): lymphocytes expressing different minor and major antigens of the HLA-DR type (=allogens) activate each other non-specifically. • CD3 assay: here there is an activation of the T-lymphocytes via an exogenously added antibody (OKT3). This antibody reacts against the CD3 molecule located on the lymphocyte membrane. This molecule has a […]. […] This molecule is also located on the lymphocyte membrane, and delivers strong costimulatory signals. […] Reagents
T cells were purified by removing non-T cells. Briefly, monocytes were removed by cold agglutination. The resulting lymphoid cells were further purified by a cell enrichment immunocolumn [Cellect Human T (Biotex, Edmonton, Alberta, Canada)] by a process of negative selection. More than 95% of the B cells were removed with this procedure. After depletion, the resulting T cell preparation was highly purified explaining these cells could not be activated by PHA or rIL-2 alone at concentrations capable of stimulating RBMC prior to deletion.
(§2) Measurements of T Cell Proliferations Induced by Anti-CD3 mAB+PMA or Anti-CD28 mAb+PMA
(§3) Highly purified T cells (10^6/ml) were stimulated by immobilized anti-CD3 or anti-CD28 mAb in the presence of PMA. Anti-CD3 mAb (CLB-CD3; CLB, Amsterdam, The Netherlands) were fixed on the 96-microwell plates by incubating the wells with 50 μl of mAb solution […] 50 μl (1/650 dilution in culture medium) was added directly to the wells. Further, 20 μl PMA (Sigma, St. Louis, Mo., USA) solution (final concentration: 0.5 ng/ml) was added. Subsequently, 20 μl of immunosuppressants were added by serial dilution in triplicate wells. Finally 100 μl of the T cell suspension (10^6/ml) was added. After 48-hour incubation at 37° C. in 5% CO2 20 μl BrdU (100 μM solution) (Cell Proliferation Elisa, Boehringer-Mannheim Belgium) was added to each well. After a further overnight incubation the T cell proliferation was measured using a calorimetric immunoassay for qualification of cell proliferation based on measurements of the incorporation of BrdU during DNA synthesis. The optical density (OD) was measured by a Behring EL311 place reader at 450 nm (reference wavelength: […]). The percent suppression of proliferation by drugs was counted using the formula: […]

[2] = system: Peripheral blood mononuclear cells (PBMC); assay: Mixed lymphocyte reaction (MLR), [3H]-thymidine incorporation
Description: as §1
Mixed Lymphocyte Reaction
Peripheral blood mononuclear cells (PBMC) were isolated from heparinized peripheral blood by density gradient centrifugation over Lymphoprep (Nycomed, Maorstua, Norway). Allogeneic PBMC or EBV-transformed human B cells [RPMI1788 (ATCC name CCL156)] which strongly express B7-1 and B7-2 were used as stimulator calls after irradiation with 30 Gy. MLR was performed in triplicate wells. After 5 days incubation at 37° C., 1 μCi [^3H]-thymidine was added to each cup. After a further 16 hours incubation, cells were harvested and counted in a β-counter.
The percent suppression of proliferation by drugs was counted using the formula: […]

Highly purified T cells [3] = assay: T cell proliferation induced by anti-CD3 mAb+PMA (BrdU); details: for IC50: read-out: IC50 aCD3
Description: T cells were purified by removing non-T cells. Briefly, monocytes were removed by cold agglutination. The resulting lymphoid cells were further purified by a cell enrichment immunocolumn [Cellect Human T (Biotex, Edmonton, Alberta, Canada)] by a process of negative selection.
as §2, §3

[4] = lowest concentration giving 50% suppression of the MLR
[5] = Homo sapiens, PBMC, lowest concentration giving 50% suppression of the MLR
[6] = Homo sapiens, PBMC, immunosuppressants for comparison
[7] = Homo sapiens, T-cell, immunosuppressants for comparison, anti-CD3 mAb+PMA
[8] = Homo sapiens, T-cell, immunosuppressants for comparison, anti-CD28 mAb+PMA

Row | Compound | IC50 (Highly purified T cells [1]; anti-CD28 mAb+PMA pathway) [µM] | IC50 [2, 4] [µM] | IC50 (Highly purified T cells [3]; anti-CD3 mAb+PMA pathway) [µM] | other results
1 | Cn1c(=O)c2[nH]c(-c3ccco3)nc2n(C)c1=S [Compound 60] | 190 | > 200 | – | –
2 | C=CCn1c(=O)c2c(nc(-c3ccc(-c4ccccc4)cc3)n2CC=C)n(CCC)c1=O [Compound 117, 1,7-diallyl-3-propyl-8-(p-bifenyl)xanthine] | 30 | 15 | 30 | –
3 | Cn1cnc2c1c(=O)[nH]c(=O)n2CC(C)(C)C [Compound 70] | 140 | > 200 | 180 | –
4 | 1,7-diallyl-3-methyl-8-fenylxanthine [Compound 8] | 80 | 30 | 35 | –
5 | CCCn1c(=O)c2c(nc(-c3ccc(-c4ccccc4)cc3)n2CCC)n(CCC)c1=O [Compound 116, 1,3,7-tripropyl-8-(p-bifenyl)xanthine] | 40 | 160 | 45 | –
6 | CC#Cn1c(=O)c2c(ncn2C)n(C)c1=O [Compound 1, 1-propynyl-3,7-dimethylxanthine] | – | – | – | IC50 (Highly purified T cells [1]; Homo sapiens, T-cell, anti-CD28 mAb+PMA pathway): > 200 µM; IC50 [2, 5]: > 200 µM; IC50 (Highly purified T cells [3]; Homo sapiens, T-cell, anti-CD3 mAb+PMA pathway): 150 µM
7 | Cn1c(-c2ccc(C(F)(F)F)cc2)nc2c1c(=O)[nH]c(=O)n2C [Compound 83] | 150 | > 200 | > 200 | –
8 | 1,3,7-trimethyl-8-(4-trifluoromethylfenyl)-xanthine [Compound 10] | 30 | 50 | 20 | –
9 | CCCn1c(=O)c2[nH]c(-c3ccc(OCC(=O)OCC)cc3)nc2n(CCC)c1=S [Compound 29] | 130 | > 200 | 150 | –
10 | Cn1c(=O)c2[nH]c(-c3ccco3)nc2n(C)c1=O [Compound 58] | 170 | > 200 | 160 | –
11 | CCCn1cnc2c1c(=O)n(CCCCC(C)O)c(=O)n2C (stereo not shown) [Compound 26] | 100 | 100 | 100 | –
12 | Cn1c(=O)c2[nH]c(C3CCCC3)nc2n(C)c1=O [Compound 62] | 190 | > 200 | > 200 | –
13 | 1,3,7-tripropyl-8-fenylxanthine [Compound 113] | 90 | 20 | 110 | –
14 | Cn1c(=O)c2[nH]cnc2n(CC(C)(C)C)c1=O [Compound 69] | 45 | 120 | 110 | –
15 | CC(C)n1c(=O)n(C)c(=O)c2[nH]cnc21 [Compound 71] | – | 160 | – | –
16 | C=CC[C@@H]1/C=C(\C)C[C@H](C)C[C@H](OC)[C@H]2O[C@@](O)(C(=O)C(=O)N3CCCC[C@H]3C(=O)O[C@H](/C(C)=C/[C@@H]3CC[C@@H](O)[C@H](OC)C3)[C@H](C)[C@@H](O)CC1=O)[C@H](C)C[C@@H]2OC [FK506, reference compound] | – | – | – | IC50 [2, 6]: 0.001 µM; IC50 (Highly purified T cells [3]; [7]): 0.001 µM; activity in the anti-CD3+PMA test (Highly purified T cells [3]; in words): active
17 | CCCn1c(=O)c2[nH]c(-c3ccco3)nc2n(CCC)c1=O [Compound 59] | 135 | 15 | 155 | –
18 | Cn1c(=S)c2[nH]c(C3CCCC3)nc2n(C)c1=O [Compound 17] | 40 | 80 | 30 | –
19 | C#CCn1c(=O)n(C)c(=O)c2c1ncn2C [Compound 67, 1,7-dimethyl-3-propynylxanthine] | – | > 200 | > 200 | –
20 | CO[C@H]1C[C@@H]2CC[C@@H](C)[C@@](O)(O2)C(=O)C(=O)N2CCCC[C@H]2C(=O)O[C@H]([C@H](C)C[C@@H]2CC[C@@H](O)[C@H](OC)C2)CC(=O)[C@H](C)/C=C(\C)[C@@H](O)[C@@H](OC)C(=O)[C@H](C)C[C@H](C)/C=C/C=C/C=C/1C [Rapamycin, reference compound] | – | – | – | IC50 (Highly purified T cells [1]; [8]): 0.001 µM; IC50 [2, 6]: 0.001 µM; IC50 (Highly purified T cells [3]; [7]): 0.001 µM

Row | Compound | IC50 (Highly purified T cells [1]; anti-CD28 mAb+PMA pathway) [µM] | IC50 [2, 4] [µM] | IC50 (Highly purified T cells [3]; anti-CD3 mAb+PMA pathway) [µM] | other results
21 | Cn1c(-c2ccc(S(N)(=O)=O)cc2)nc2c1c(=O)[nH]c(=O)n2C [Compound 37] | 150 | > 200 | 150 | –
22 | CCCn1c(=O)c2[nH]c(-c3ccc(C(F)(F)F)cc3)nc2n(CCC)c1=O [Compound 48] | 150 | 180 | 160 | –
23 | COc1c(C)c2c(c(O)c1C/C=C(\C)CCC(=O)O)C(=O)OC2 [Moferil, Mycophenolic acid, reference compound] | – | – | – | IC50 (Highly purified T cells [1]; [8]): 0.05 µM; IC50 [2, 5]: < 0.5 µM; IC50 (Highly purified T cells [3]; [7]): 0.05 µM
24 | CCCn1c(=O)c2[nH]c(-c3ccc(OCC(=O)O)cc3)nc2n(CCC)c1=S [Compound 28] | 75 | 120 | 150 | –
25 | CCCn1c(=O)c2[nH]c(-c3ccco3)nc2n(CCC)c1=S [Compound 61] | 110 | 100 | 170 | –
26 | 1,3-dipropyl-8-[4-dimethylamino(propyl(amino-(sulfonyl))))fenyl]xanthine [Compound 40] | 70 | 25 | 60 | –
27 | Cn1c(=O)c2[nH]c(C3CCCC3)nc2n(C)c1=S [Compound 64] | > 200 | > 200 | > 200 | –
28 | 1,3-dipropyl-2-thio-8-[4-((((N-2-aminoethyl)-amino)carbonyl)methyl)oxy)fenyl]xanthine [Compound 35] | 70 | 50 | 50 | –
29 | 1,3-dimethyl-7-propyl-8-fenylxanthine [Compound 112] | 40 | 20 | 45 | –
30 | 1,3-dimethyl-7-allyl-8-[(4-trifluoromethyl)-fenyl]xanthine [Compound 82] | 80 | 25 | 80 | –
31 | Cn1c(=O)c2[nH]c(-c3ccc(S(N)(=O)=O)cc3)nc2n(C)c1=O [Compound 125] | 90 | 160 | 150 | –
32 | C#CCn1cnc2c1c(=O)n(C)c(=O)n2CC#C [Compound 3, 1-methyl-3,7-dipropynylxanthine] | 100 | 150 | 150 | –
33 | CCCn1c(=O)c2[nH]c(C3CCCC3)nc2n(CCC)c1=O [Compound 63] | 100 | > 200 | 135 | –
34 | CCCn1c(=O)c2[nH]c(C3CCCC3)nc2n(CCC)c1=S [Compound 65] | 75 | > 200 | 135 | –
35 | CCOC(=O)CCCn1c(=O)c2c(ncn2C)n(C)c1=O [Compound 24, 1-(3-ethoxycarbonyl)propyl-3,7-dimethylxanthine] | 150 | > 200 | 170 | –
36 | 1,3-dipropyl-8-[4(dimethylamino(ethyl(amino-(sulfonyl))))fenyl]xanthine [Compound 9] | 50 | 25 | 40 | –
37 | Cn1c(=O)c2[nH]c(-c3ccc(-c4ccccc4)cc3)nc2n(C)c1=O [Compound 115] | 160 | 110 | > 200 | –
38 | 1,3,7-tripropyl-8-(4-chlorofenyl)xanthine [Compound 118] | 20 | 15 | 15 | –
39 | CCCn1c(=O)c2[nH]c(-c3ccsc3)nc2n(CCC)c1=O [Compound 15] | 170 | – | > 200 | –

From patent publication US7253176B1, “Immunosuppressive effects of 8-substituted xanthine derivatives” (K.U. Leuven Research & Development, priority 2000, dated 2007)
